Reference: paper PMC7016952, “Characterization of the Menin-MLL Interaction as Therapeutic Cancer Target” (Cancers, 2020)
One block for each molecule: values may come before it. Residues, ends and D or L forms follow the SMILES beside them. *: point of attachment. Cbz = O=C(OCc1ccccc1)*

What was measured:
[1] = test system: T1, menin protein levels in VCaP cells; experiment: Western blot of menin protein level; assay type: cell-based, human
T1 construct: endogenous in cells; host or cells: VCaP

[2] = molecular target: T2, menin-MLL interaction (Homo sapiens, UniProt O00255); experiment: TR-FRET menin-MLL binding assay; conditions: read-out: Potency IC50 Menin-MLL binding
T2 construct: recombinant full length, His-tagged menin
T2 sequence (O00255 1-610): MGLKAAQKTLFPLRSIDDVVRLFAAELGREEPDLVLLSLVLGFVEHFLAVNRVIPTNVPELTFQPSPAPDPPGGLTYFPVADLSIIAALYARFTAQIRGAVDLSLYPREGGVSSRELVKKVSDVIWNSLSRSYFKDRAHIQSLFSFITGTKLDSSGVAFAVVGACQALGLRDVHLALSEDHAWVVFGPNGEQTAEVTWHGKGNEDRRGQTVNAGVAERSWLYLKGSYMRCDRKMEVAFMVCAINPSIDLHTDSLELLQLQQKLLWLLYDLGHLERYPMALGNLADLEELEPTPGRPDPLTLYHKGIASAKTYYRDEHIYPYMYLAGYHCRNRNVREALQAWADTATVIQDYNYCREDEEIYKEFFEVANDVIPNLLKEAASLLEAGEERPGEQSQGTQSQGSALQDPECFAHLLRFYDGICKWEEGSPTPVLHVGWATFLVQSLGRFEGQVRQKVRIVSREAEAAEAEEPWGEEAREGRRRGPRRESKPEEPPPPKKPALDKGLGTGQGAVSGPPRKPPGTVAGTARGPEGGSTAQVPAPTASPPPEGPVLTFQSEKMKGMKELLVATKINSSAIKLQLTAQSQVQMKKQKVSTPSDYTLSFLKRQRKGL

[3] = molecular target: T3, menin (Homo sapiens, UniProt O00255); experiment: Isothermal Titration Calorimetry (ITC) on purified menin; assay type: binding; conditions: ITC, 25 °C, menin 1-615; read-out: KD
T3 construct: purified menin (1–615 with GST-tag cleaved as described above); GST (TEV cleavable) (N, cleaved yes); made in house; host or cells: E. coli BL21 (DE3)
T3 sequence (O00255 1-615 isoform O00255-1): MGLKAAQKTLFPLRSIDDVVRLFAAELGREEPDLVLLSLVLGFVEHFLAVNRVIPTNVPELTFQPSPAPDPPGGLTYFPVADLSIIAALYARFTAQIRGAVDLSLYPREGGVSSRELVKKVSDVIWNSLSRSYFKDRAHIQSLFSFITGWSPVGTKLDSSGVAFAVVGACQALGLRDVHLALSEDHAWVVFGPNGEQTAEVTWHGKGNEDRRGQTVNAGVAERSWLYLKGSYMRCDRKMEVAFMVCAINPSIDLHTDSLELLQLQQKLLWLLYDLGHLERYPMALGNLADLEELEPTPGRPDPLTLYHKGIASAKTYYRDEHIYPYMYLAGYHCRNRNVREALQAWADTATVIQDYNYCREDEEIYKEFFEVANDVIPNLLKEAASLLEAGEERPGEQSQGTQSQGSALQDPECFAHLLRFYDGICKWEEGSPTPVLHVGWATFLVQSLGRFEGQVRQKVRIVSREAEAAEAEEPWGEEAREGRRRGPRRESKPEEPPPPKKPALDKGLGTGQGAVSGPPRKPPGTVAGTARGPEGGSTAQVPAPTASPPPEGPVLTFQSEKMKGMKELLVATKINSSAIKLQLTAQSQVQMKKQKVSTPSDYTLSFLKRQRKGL
Description: Cloning of expression vectors for recombinant menin was performed as follows. […] Proteins were expressed in E. coli BL21 (DE3) following 0.1 mM IPTG induction at 17 °C overnight. For purification, cell pellets were resuspended in buffer A (50 mM Tris pH 7.5, 300 mM NaCl, 2 mM DTT). Cells were lysed using a high pressure Microfluidics apparatus and the cell debris pelleted by centrifugation. The supernatant was applied to a GST column (GE Healthcare, Chicago, IL, USA), washed with two column volumes of washing buffer A and eluted with Buffer B (Buffer A plus 15 mM reduced glutathione). If necessary, the purification tag was cleaved off with the addition of His-TEV protease (1:20 mass ratio) during overnight incubation in buffer A. His-TEV was removed by IMAC column rebinding and final protein purification of either GST-cleaved or uncleaved menin-1 was performed by size exclusion chromatography using a HiLoad 16/60 Superdex 200 (GE Healthcare) column in buffer C (Buffer A but 50 mM NACl).
The compound was dissolved in 100% DMSO to a concentration of 10 mM and subsequently diluted to a final concentration of 5 µM in ITC Buffer. Isothermal Titration Calorimetry (ITC) was performed at 25 °C in a Microcal PEAQ-ITC (Malvern Panalytical). […] Reference Power was set to 6 μcal/s. Data were collected on high feedback mode. Analysis was performed with a single binding site model in the Microcal PEAQ-ITC Analysis Software (Malvern Panalytical).

[4] = test system: MV4;11 cells; experiment: Proliferation inhibition, MV4;11; assay type: cell-based, human; conditions: Homo sapiens, MV4-11; proliferation; read-out: Potency IC50 MV4;11
[5] = test system: MOLM-13 cells; experiment: Proliferation inhibition, MOLM-13; assay type: cell-based, human; conditions: Homo sapiens, proliferation, read-out: Potency IC50 MOLM-13
[6] = test system: HL-60 cells; experiment: Proliferation inhibition, HL-60; assay type: cell-based; conditions: Homo sapiens, read-out: Potency IC50 HL-60
[7] = test system: Jurkat cells; experiment: Proliferation inhibition, Jurkat; assay type: cell-based; conditions: Homo sapiens, read-out: Potency IC50 Jurkat
[8] = Metabolic stability in rat hepatocytes; assay type: in vitro ADME; conditions: in vitro maximal bioavailability
Description: Liver cells were distributed at a density of 1.0 × 10^6 cells/mL and treated with 1 µM BAY-155 or MI-503. During incubation, the hepatocyte suspensions were continuously shaken, and aliquots were taken at 2, 8, 16, 30, 45, and 90 min, fixed with cold methanol and stored at −20 °C. Next, samples were centrifuged and the supernatant was analyzed with an LC-MS/MS. The compound half-life was determined from the concentration–time plot. The intrinsic clearances were calculated from the half-life, together with additional parameters (liver blood flow, quantity of liver cells in vivo and in vitro).

[9] = In vivo DMPK in rat
[10] = molecular target: CYP 3A4 (Homo sapiens, UniProt P08684); experiment: CYP inhibition 3A4; assay type: in vitro ADME
Sequence of CYP 3A4 (P08684 whole entry): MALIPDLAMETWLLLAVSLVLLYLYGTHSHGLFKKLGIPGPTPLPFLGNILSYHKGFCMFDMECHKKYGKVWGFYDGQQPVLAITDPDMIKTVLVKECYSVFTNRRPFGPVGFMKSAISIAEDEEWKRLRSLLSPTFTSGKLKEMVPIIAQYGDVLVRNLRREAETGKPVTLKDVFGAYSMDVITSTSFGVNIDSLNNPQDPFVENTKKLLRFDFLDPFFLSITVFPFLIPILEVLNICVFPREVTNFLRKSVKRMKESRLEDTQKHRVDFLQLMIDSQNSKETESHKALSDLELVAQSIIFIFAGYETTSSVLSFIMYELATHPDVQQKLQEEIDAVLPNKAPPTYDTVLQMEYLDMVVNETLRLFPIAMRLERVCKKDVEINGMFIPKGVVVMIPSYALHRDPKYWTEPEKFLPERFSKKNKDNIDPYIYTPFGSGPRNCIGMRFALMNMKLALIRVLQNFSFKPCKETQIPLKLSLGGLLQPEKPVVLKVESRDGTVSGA

[11] = molecular target: CYP 2D6 (Homo sapiens, UniProt P10635); experiment: CYP inhibition 2D6; assay type: in vitro ADME
Sequence of CYP 2D6 (P10635 whole entry): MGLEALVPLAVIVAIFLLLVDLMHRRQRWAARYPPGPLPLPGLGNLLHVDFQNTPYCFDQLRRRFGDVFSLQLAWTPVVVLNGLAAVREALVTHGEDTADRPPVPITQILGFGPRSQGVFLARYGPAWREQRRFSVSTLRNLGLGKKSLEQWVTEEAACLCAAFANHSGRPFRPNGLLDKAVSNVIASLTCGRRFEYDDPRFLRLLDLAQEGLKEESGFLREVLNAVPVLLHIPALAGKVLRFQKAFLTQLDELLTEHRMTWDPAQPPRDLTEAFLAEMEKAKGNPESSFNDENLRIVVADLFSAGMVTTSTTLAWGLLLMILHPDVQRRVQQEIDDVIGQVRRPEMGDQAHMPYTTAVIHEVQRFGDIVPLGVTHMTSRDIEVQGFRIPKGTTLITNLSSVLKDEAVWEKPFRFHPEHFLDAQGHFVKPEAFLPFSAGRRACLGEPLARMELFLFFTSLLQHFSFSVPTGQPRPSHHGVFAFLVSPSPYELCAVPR

[12] = molecular target: CYP 2C9 (Homo sapiens, UniProt P11712); experiment: CYP inhibition 2C9; assay type: in vitro ADME
Sequence of CYP 2C9 (P11712 whole entry): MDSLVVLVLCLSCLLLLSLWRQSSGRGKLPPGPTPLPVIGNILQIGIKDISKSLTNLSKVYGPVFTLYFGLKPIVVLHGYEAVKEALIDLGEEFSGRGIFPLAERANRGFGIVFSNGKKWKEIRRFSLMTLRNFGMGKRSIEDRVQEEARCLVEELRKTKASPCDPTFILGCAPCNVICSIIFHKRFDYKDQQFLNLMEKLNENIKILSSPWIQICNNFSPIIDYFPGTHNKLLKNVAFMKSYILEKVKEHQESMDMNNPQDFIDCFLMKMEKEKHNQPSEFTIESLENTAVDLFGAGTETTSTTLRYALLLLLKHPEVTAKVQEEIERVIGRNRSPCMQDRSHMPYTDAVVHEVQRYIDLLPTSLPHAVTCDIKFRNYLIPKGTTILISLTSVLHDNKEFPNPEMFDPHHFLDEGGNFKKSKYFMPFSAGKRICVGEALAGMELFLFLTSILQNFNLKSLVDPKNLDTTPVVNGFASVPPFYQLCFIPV

[13] = molecular target: CYP 2C8 (Homo sapiens, UniProt P10632); experiment: CYP inhibition 2C8; assay type: in vitro ADME
Sequence of CYP 2C8 (P10632 whole entry): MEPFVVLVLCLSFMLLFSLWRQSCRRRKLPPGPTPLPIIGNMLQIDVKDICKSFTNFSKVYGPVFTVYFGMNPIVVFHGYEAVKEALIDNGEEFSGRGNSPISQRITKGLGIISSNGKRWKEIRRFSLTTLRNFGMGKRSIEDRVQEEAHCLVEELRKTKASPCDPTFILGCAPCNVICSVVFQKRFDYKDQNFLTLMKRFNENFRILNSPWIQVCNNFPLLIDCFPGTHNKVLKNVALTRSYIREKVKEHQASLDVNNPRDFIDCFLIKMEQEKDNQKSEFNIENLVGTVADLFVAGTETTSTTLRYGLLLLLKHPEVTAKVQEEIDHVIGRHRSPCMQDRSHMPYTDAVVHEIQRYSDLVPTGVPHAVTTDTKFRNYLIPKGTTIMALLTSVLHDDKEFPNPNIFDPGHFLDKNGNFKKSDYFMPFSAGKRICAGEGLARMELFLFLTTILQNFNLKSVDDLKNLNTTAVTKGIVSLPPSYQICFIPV

[14] = molecular target: CYP 1A2 (Homo sapiens, UniProt P05177); experiment: CYP inhibition 1A2; assay type: in vitro ADME
Sequence of CYP 1A2 (P05177 whole entry): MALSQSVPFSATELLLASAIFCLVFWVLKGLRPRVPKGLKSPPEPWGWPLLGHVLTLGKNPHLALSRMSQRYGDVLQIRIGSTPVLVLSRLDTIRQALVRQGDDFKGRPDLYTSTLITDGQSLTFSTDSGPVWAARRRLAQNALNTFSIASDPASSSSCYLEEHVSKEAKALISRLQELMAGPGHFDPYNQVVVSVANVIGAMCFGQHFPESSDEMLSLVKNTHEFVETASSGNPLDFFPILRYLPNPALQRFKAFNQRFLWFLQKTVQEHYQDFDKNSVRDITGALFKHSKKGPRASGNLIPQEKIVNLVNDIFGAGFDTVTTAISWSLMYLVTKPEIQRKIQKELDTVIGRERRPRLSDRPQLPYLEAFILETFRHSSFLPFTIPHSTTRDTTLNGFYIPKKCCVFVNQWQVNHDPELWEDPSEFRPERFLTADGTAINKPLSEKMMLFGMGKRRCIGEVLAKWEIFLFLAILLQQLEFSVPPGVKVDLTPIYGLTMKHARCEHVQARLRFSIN

[15] = test system: safety pharmacology relevant proteins (GPCRs, ion channels and transporters); experiment: Selectivity panel of safety pharmacology assays; conditions: 10 µM
[16] = test system: VCaP xenograft; experiment: VCaP xenograft efficacy; assay type: in vivo, mice
Description: (§1) Tumor cells were injected subcutaneously into the flanks of 6- to 9-week old animals. Efficacy studies in xenograft models were performed at Bayer or EPO GmbH (Berlin-Buch, Germany) using NMRI nu/nu, SCID, BALB/c Nude female mice or SCID male mice (VCaP tumors). All animal studies were conducted in accordance with the animal welfare laws and were approved by the State Office for Health and Social Affairs Berlin (LAGeSo). Experiments were run under the animal license B3600a0007. Compound treatment started at a predefined tumor size or burden or at a predefined day after cell inoculation. BAY-155 was administered orally (p.o.) at various doses and regorafenib, tamoxifen and enzalutamide (resuspended in PEG400/H2O 6/4 or PEG400/EtOH 9/1) were used as control treatment for RKO, MCF7 and VCaP xenografts, respectively. Subcutaneous tumor volumes were determined by caliper measurement.

[17] = test system: AR signaling pathway genes in VCaP tumor samples; experiment: Ex vivo gene expression in VCaP xenografts; set-up: species or system mice; conditions: 52 days of treatment
Description: (§2) Total RNA was isolated using RNeasy-Plus Mini kit (Qiagen, Hilden, Germany). RNA (1 μg) was reverse transcribed using SuperScript III First-Strand Synthesis SuperMix (Life Technologies) and the generated cDNA was analyzed with commercial primers (Supplementary Materials Table S1) by qRT-PCR using TaqMan Fast Advanced Master Mix (Life Technologies). For the RNA-seq study, ZR-75-1, BT474, PANC-1, MiaPaCa-2, 22RV1, JMSU-1, DLD-1, SW1463, LoVo and G401 cells were treated with 5 µM BAY-155 or DMSO for 48 h prior to RNA extraction. After 48 h of 5 µM BAY-155 or DMSO treatment, MCF7, VCaP and LNCaP cells were stimulated for further 12 h with 0.1 nM of E2 (ß-Estradiol) or 1 nM R1881, respectively. MCF7, VCaP and LNCaP cells were cultured in starvation medium (containing 5 µM BAY-155 or DMSO) 6 h before stimulation. RNA was isolated using RNeasy-Plus Mini kit (Qiagen). The purified RNA was used for library preparation (Illumina, San Diego, CA, USA. TruSeq Stranded mRNA Kit) and the generated libraries were sequenced (Illumina, HiSeq2500 HTv4, SR, dual-indexing, 50 cycles).
(§3) Tumors were harvested, dissociated and total RNA was extracted using the TissueLyser (Qiagen, Hilden, Germany) together with RNeasy-Plus Mini kit according to the manufacturer protocol.

[18] = test system: RKO xenograft; experiment: RKO xenograft efficacy; assay type: in vivo, mice
Description: as §1

[19] = test system: MCF7 xenograft; experiment: MCF7 xenograft efficacy; assay type: in vivo, mice
Description: as §1

[20] = test system: ER signaling pathway genes in MCF7 tumor samples; experiment: Ex vivo gene expression in MCF7 xenografts; set-up: species or system mice; conditions: 27 days of treatment
Description: as §2, §3

Compound: CC(C)C[C@@H](C=O)NC(=O)[C@H](CC(C)C)NC(=O)[C@H](CC(C)C)NC(=O)OCc1ccccc1 [MG-132] (Cbz-Leu-Leu-Leu-aldehyde)
rescue of menin protein level under BAY-155 treatment ([1]; MG-132 10 µM with BAY-155 10 µM, 16 h): fully rescued the menin protein level

IC50 [2]: 80 nM
Kd [3]: 94 nM
IC50 [4]: 251 nM
IC50 [5]: 893 nM
IC50 [6]: 672 nM
IC50 [7]: 568 nM
hepatocytes Fmax Rat [8]: 48%
in vivo F Rat ([9]; rat in vivo bioavailability): 2.7%
clearance ([9]; whole blood, rat in vivo, read-out: in vivo CL blood Rat (converted)): 25 mL/min/kg
IC50 [10]: 1000 nM
IC50 [11]: 2400 nM
IC50 [12]: 800 nM
IC50 [13]: 4000 nM
IC50 [14]: > 10000 nM
Compound: Cc1c(CN2CCC(Nc3ncnc4sc(CC(F)(F)F)cc34)CC2)ccc2c1cc(C#N)n2Cc1cn[nH]c1 [MI-503]
number of tested proteins inhibited by ≥ 50% [15]: 28
menin protein levels ([1]; Western blot): reduce menin protein levels in a time- and concentration-dependent manner

Compound: CNC(=O)c1ccc(N2C(=S)N(c3ccc(C#N)c(C(F)(F)F)c3)C(=O)C2(C)C)cc1F [enzalutamide, reference compound]
tumor volume and tumor weight [16]: reduced tumor volume and tumor weight
FKBP5 and TMPRSS2 expression ex vivo [17]: significant reduction

Compound: CNC(=O)c1cc(Oc2ccc(NC(=O)Nc3ccc(Cl)c(C(F)(F)F)c3)c(F)c2)ccn1 [regorafenib, reference compound]
tumor volume and weight (anti-growth effects) [18]: pronounced reduction of tumor volume and weight

Compound: CC/C(=C(\c1ccccc1)c1ccc(OCCN(C)C)cc1)c1ccccc1 [tamoxifen, reference compound]
tumor volume and tumor weight [19]: reduced tumor volume and tumor weight
EGR3, GREB1 and PGR1 expression ex vivo [20]: significant reduction
